Assay results as given in patent publication EP0721336B1, “BENZAZOLE COMPOUNDS FOR USE IN THERAPY” (CANCER RESEARCH CAMPAIGN TECHNOLOGY LIMITED, priority 1993, dated 1995).
Values after ≈ are worked out from the molar mass of the structure shown. Read-outs that look alike come from different tables or passages of the source.

Assays:
ZR 75 mammary (ER+) = assay: In vitro cytotoxicity assay; assay type: cell-based; conditions: Homo sapiens, ZR75
Text: (§1) This is illustrated in Tables 1 and 2 at the end of the present description which show in vitro test results obtained in various sets of experiments for the cytotoxic activity of this compound CJM 126 against a range of human tumour cell lines, expressed in terms of IC50 values (concentration or dosage required to reduce cell growth or proliferation by 50%) calculated from dose-effect curves plotted for cultures of the cells in question.
(§2) In carrying out the above in vitro studies, the method used for conducting the cytotoxicity assays was generally substantially as follows: • Cells were maintained in a continuous logarithmic culture in Dulbecco's medium supplemented with 10% fetal calf serum and penicillin (100 IU/ml) and streptomycin (100 µg/ml). The cells were mildly trypsinized for passage and for use in assays. On day zero, 100µl of trypsinized tumour cells (1 x 10^4/ml) were plated in the wells of 96-well flat-bottom microtiter plates. […] On day two 50µl of the highest drug concentration was added to the wells of column 12 and from there serially diluted 3-fold to column 1 by serial transfer of 50µl using an 8-channel micropipette. The final volume of column 1 was adjusted to 100µl. No additions were made to the wells of rows A and B, which served as controls. The plates were further incubated for 5 days at 37°C and 5% CO2 in air. Each compound was tested in duplicate. • On day 7 the test was terminated by the addition of 100µl saline containing 0.002% w/v propidium iodide (Sigma), 0.3% drawing ink (Staedtler "Marsmatic 745" - Trade Mark) and 0.5% Triton X-100. The plates were kept at 4°C overnight before reading on an inverted microscope equipped with an automated scanning stage. Fluorescence intensity was measured in arbitrary units by a photomultiplier. An HP-87 computer controlled the movement of the stage and also collected and processed the data from the multiplier. • For each compound tested a dose-response curve was obtained and the IC50 value (the drug concentration at 50% inhibition of cell growth) was calculated.

IGR37 melanoma = assay: In vitro cytotoxicity assay; assay type: cell-based; conditions: Homo sapiens, IGR-37
Text: as §1, §2

HT29 colon carcinoma = assay: In vitro cytotoxicity assay; assay type: cell-based; conditions: Homo sapiens, HT-29
Text: as §1, §2

A204 rhabdomyosarcoma = assay: In vitro cytotoxicity assay; assay type: cell-based; conditions: Homo sapiens
Text: as §1, §2

MCF 7-B (ER+) = assay: In vitro cytotoxicity assay; assay type: cell-based; conditions: Homo sapiens; 2nd series of experiments
Text: as §1, §2

CH 1/CisR = assay: In vitro cytotoxicity assay; assay type: cell-based; conditions: Homo sapiens, CH1cisR; 2nd series of experiments
Text: as §1, §2

CH 1 ovarian carcinoma = assay: In vitro cytotoxicity assay; assay type: cell-based; conditions: Homo sapiens; 2nd series of experiments
Text: as §1, §2

A2780/CisR = assay: In vitro cytotoxicity assay; assay type: cell-based; conditions: Homo sapiens, A2780cisR; 2nd series of experiments
Text: as §1, §2

T47D mammary (ER-) = assay: In vitro cytotoxicity assay; assay type: cell-based; conditions: Homo sapiens, 2nd series of experiments
Text: as §1, §2

[1] = system: MDA 231 mammary (EGFR+/erbB3+); assay: In vitro cytotoxicity assay; assay type: cell-based; conditions: Homo sapiens, MDA-MB-231
Text: as §1, §2

WiDr colon carcinoma = assay: In vitro cytotoxicity assay; assay type: cell-based; conditions: Homo sapiens
Text: as §1, §2

SKOV-3 ovarian carcinoma = assay: In vitro cytotoxicity assay; assay type: cell-based; conditions: Homo sapiens, SK-OV-3; 2nd series of experiments
Text: as §1, §2

SKBR3 mammary (ER-) = assay: In vitro cytotoxicity assay; assay type: cell-based; conditions: Homo sapiens, SK-BR-3
Text: as §1, §2

HX/62 ovarian carcinoma = assay: In vitro cytotoxicity assay; assay type: cell-based; conditions: Homo sapiens, HX62; 2nd series of experiments
Text: as §1, §2

41M/CisP = assay: In vitro cytotoxicity assay; assay type: cell-based; conditions: Homo sapiens; 2nd series of experiments
Text: as §1, §2

41M ovarian carcinoma = assay: In vitro cytotoxicity assay; assay type: cell-based; conditions: Homo sapiens; 2nd series of experiments
Text: as §1, §2

MCF 7-T (ER-) = assay: In vitro cytotoxicity assay; assay type: cell-based; conditions: Homo sapiens; 2nd series of experiments
Text: as §1, §2

T24 bladder carcinoma = assay: In vitro cytotoxicity assay; assay type: cell-based; conditions: Homo sapiens
Text: as §1, §2

[2] = Lethal dose (LD50) determination; assay type: in vivo
Aqueous solubility = assay type: physicochemical; conditions: water
Experimental: The latter was first obtained (as yellow crystals, m.p. 229-231°C, crystallised from methanol or dimethyl formamide) either via Route C (71% yield) from 2-aminothiophenol and 4-nitrobenzoyl chloride, or via Route D (10% yield) from the corresponding thiobenzanilide and potassium ferricyanide.

A431 cells = assay: In vitro growth assay; assay type: cell-based; conditions: range of concentrations 0.1nM-10µM
Experimental: No effect was observed, for example, on the growth of A431 cells as a result of exposure to CJM 126 over a range of concentrations (0.1nM-10µM).
as §2, with “Each compound was tested in duplicate. • On day 7 the test was terminated by the addition of 100µl saline containing 0.002% w/v propidium iodide (Sigma), 0.3% drawing ink (Staedtler "Marsmatic 745" - Trade Mark) and 0.5% Triton X-100.” left out, “An HP-87 computer controlled the movement of the stage and also collected and processed the data from the multiplier. • For each compound tested a dose-response curve was obtained and the IC50 value (the drug concentration at 50% inhibition of cell growth) was calculated.” left out

[3] = 2nd series of experiments, read-out: IC50

SMILES: Nc1ccc(-c2nc3ccccc3s2)cc1 [CJM 126, 2-(4-aminophenyl)benzothiazole]
- IC50 (ZR 75 mammary (ER+); [3]): 0.028 µM
- IC50 (ZR 75 mammary (ER+); ZR 75, read-out: estimated IC50): ~0.0247 µM
- IC50 (IGR37 melanoma; 1st series of experiments): 24 µg/mL
- IC50 (IGR37 melanoma; 2nd series of experiments): 106 µM
- IC50 (HT29 colon carcinoma; 1st series of experiments): 7.57 µg/mL
- IC50 (HT29 colon carcinoma; 2nd series of experiments): 33 µM
- IC50 (A204 rhabdomyosarcoma; 1st series of experiments): 5.94 µg/mL
- IC50 (A204 rhabdomyosarcoma; 2nd series of experiments): 26 µM
- IC50 (MCF 7-B (ER+)): 62.2 µM
- IC50 (CH 1/CisR): 33 µM
- IC50 (CH 1 ovarian carcinoma): 22 µM
- IC50 (A2780/CisR): 37 µM
- IC50 (T47D mammary (ER-)): 44.1 µM
- IC50 [1, 3]: 0.017 µM
- IC50 ([1]; MDA 231, read-out: estimated IC50): ~0.0172 µM
- IC50 (WiDr colon carcinoma; 1st series of experiments): 6.01 µg/mL
- IC50 (WiDr colon carcinoma; 2nd series of experiments): 26 µM
- IC50 (SKOV-3 ovarian carcinoma): 64 µM
- IC50 (SKBR3 mammary (ER-); [3]): 0.026 µM
- IC50 (SKBR3 mammary (ER-); SKBR3, read-out: estimated IC50): ~0.0259 µM
- IC50 (HX/62 ovarian carcinoma): 120 µM
- IC50 (41M/CisP): 40 µM
- IC50 (41M ovarian carcinoma): 36 µM
- IC50 (MCF 7-T (ER-)): 12.9 µM
- IC50 (T24 bladder carcinoma; 1st series of experiments): 16.9 µg/mL
- IC50 (T24 bladder carcinoma; 2nd series of experiments): 75 µM
- LD50 ([2]; daily administration over 3 consecutive days): > 31 mg/kg/day
- LD50 ([2]; male, DBA/2, mouse, in vivo, ip, single i.p. dose, read-out: LD50): ~125 mg/kg
- solubility (Aqueous solubility): ~3.8 µg/mL (≈ 16.8 µM)
- effect on growth (A431 cells): No effect
